Laboratory results as given in patent publication US20240100170A1, “CYCLIC-AMP RESPONSE ELEMENT BINDING PROTEIN (CBP) AND/OR ADENOVIRAL E1A BINDING PROTEIN OF 300 KDA (P300) DEGRADATION COMPOUNDS AND METHODS OF USE” (CULLGEN (SHANGHAI), INC., priority 2020, published 2024).
Like-named read-outs stand apart in the source and are kept apart here.

How the values were obtained:
[1] = tested on: LNCaP prostate cancer cell; test: LNCaP cell viability (CellTiter-Glo); format: cell-based; details: Homo sapiens, 72 h, LNCaP cell viability, 3 days, CellTiter-Glo
In short: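 CellTiter-Glo luminescence measured three days after dosing with a 12-point 3-fold compound dilution series. LNCaP cells seeded at 5000/well in RPMI 1640 with 10% FBS; data normalized to untreated controls and IC50 fitted by nonlinear least-squares regression.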

P300 = P300 (Homo sapiens, UniProt Q09472); test: percentage of inhibition (degradation) of p300 at 10 nM, Tables 2-4; format: cell-based; parameters: LNCaP or 22RV1 cells that express CBP/P300 proteins were treated with GNE-781 or the bivalent compounds; endogenous in cells; host or cells: LNCaP or 22RV1 (not given); details: for inhibition at 0.01 µM: read-out: Degradation (10 nM)
Experimental: Cultured cells or tissue chunks were washed with cold PBS once and lysed in cold RIPA buffer supplemented with protease inhibitors and phosphatase inhibitors (Beyotime Biotechnology). The solutions were then incubated at 4° C. for 30 minutes with gentle agitation to fully lyse cells. Cell lysates were centrifuged at 13,000 rpm for 10 minutes at 4° C. and pellets were discarded. Total protein concentrations in the lysates were determined by BCA assays (Beyotime Biotechnology). Cell lysates were mixed with Laemmli loading buffer to 1 X and heated at 99° C. for 5 min. Proteins were resolved on SDS-PAGE and visualized by chemiluminescence. Images were taken by a ChemiDoc MP Imaging system (Bio-Rad). Protein bands were quantitated using the accompanied software provided by Bio-Rad.

Chain of P300 (Q09472 whole entry): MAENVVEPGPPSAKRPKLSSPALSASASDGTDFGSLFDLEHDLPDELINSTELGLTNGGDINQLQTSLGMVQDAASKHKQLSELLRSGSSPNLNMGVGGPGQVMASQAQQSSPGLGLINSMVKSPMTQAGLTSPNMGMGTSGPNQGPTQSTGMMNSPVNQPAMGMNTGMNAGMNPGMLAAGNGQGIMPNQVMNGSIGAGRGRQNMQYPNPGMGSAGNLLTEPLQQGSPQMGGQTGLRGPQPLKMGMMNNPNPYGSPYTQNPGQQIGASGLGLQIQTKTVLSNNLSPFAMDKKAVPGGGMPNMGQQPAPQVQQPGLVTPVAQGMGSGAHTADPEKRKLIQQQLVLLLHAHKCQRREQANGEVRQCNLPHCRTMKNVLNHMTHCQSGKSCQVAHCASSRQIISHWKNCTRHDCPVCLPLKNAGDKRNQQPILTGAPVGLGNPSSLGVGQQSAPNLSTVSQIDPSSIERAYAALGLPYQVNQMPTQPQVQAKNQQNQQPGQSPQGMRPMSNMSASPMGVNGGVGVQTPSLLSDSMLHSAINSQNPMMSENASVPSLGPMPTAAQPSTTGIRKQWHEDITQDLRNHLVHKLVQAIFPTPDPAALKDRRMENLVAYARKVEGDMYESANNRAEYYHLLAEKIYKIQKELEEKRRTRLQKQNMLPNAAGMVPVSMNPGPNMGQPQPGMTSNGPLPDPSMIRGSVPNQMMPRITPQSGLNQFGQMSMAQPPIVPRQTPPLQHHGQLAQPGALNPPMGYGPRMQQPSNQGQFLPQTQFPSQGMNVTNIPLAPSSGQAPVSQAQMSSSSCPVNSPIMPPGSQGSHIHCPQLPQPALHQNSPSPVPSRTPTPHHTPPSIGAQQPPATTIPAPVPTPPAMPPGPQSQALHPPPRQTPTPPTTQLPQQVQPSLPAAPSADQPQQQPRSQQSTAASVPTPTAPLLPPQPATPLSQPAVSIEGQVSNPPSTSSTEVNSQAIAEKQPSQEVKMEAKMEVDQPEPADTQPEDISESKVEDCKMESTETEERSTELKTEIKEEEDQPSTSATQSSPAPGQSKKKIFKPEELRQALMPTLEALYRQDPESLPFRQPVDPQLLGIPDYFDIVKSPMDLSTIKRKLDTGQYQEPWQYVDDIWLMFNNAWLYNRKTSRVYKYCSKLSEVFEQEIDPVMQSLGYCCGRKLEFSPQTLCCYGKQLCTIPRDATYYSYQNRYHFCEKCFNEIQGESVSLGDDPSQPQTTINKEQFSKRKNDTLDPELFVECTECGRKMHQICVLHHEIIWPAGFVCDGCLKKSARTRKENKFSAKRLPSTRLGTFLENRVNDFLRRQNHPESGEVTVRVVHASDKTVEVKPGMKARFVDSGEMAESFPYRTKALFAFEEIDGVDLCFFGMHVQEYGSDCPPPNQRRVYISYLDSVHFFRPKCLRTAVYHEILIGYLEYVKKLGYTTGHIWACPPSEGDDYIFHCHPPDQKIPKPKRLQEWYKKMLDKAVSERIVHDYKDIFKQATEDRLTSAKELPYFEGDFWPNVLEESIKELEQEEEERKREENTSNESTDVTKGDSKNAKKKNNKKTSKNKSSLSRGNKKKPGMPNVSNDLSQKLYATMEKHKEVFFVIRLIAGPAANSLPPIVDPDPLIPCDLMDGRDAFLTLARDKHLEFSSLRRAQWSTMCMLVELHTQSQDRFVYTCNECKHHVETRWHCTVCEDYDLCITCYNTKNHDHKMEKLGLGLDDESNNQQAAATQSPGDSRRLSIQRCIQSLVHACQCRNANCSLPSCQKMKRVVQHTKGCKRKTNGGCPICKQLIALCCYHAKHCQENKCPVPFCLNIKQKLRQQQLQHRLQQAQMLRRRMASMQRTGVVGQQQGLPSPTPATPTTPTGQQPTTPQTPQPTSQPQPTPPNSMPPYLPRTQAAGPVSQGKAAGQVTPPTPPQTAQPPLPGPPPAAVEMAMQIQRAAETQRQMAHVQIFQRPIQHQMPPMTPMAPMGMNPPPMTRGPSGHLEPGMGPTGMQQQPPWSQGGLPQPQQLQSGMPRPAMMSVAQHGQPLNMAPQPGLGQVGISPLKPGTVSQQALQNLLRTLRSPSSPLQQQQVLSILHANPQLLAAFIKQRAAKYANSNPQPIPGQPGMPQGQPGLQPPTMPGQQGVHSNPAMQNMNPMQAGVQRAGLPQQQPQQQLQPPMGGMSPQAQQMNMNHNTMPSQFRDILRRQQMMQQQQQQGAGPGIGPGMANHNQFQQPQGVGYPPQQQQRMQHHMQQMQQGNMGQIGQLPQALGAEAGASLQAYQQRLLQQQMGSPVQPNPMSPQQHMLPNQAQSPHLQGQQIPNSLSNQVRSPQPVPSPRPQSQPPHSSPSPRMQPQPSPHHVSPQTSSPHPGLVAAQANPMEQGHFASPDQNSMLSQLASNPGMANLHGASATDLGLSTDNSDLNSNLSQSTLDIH

| SMILES | IC50 ([1]; Table 3) | IC50 ([1]; Table 4) | inhibition at 0.01 µM (P300; p300, 10 nM, Table 4) | other results |
| --- | --- | --- | --- | --- |
| CNC(=O)N1CCc2c(c(N3CCCc4cc(-c5cnn(C)c5)c(C(F)F)cc43)nn2C2CCN(C(=O)CCOCCC(=O)N[C@H](C(=O)N3C[C@H](O)C[C@H]3C(=O)NCc3ccc(-c4scnc4C)cc3)C(C)(C)C)CC2)C1 [P-065, 3-(7-(difluoromethyl)-6-(1-methyl-1H-pyrazol-4-yl)-3,4-dihydroquinolin-1(2H)-yl)-1-(1-(3-(3-(((S)-1-((2S,4R)-4-hydroxy-2-((4-(4-methylthiazol-5-yl)benzyl)carbamoyl)pyrrolidin-1-yl)-3,3-dimethyl-1-oxobutan-2-yl)amino)-3-oxopropoxy)propanoyl)piperidin-4-yl)-N-methyl-1,4,6,7-tetrahydro-5H-pyrazolo[4,3-c]pyridine-5-carboxamide] | 0.0745 µM |  |  | inhibition at 0.01 µM (P300; p300, 10 nM, Table 3): < 20% |
| CC(=O)N1CCc2c(c(N3CCCc4cc(-c5cnn(C)c5)c(C(F)F)cc43)nn2C2CCN(C(=O)CCN3CCN(CC#Cc4cccc5c4n(C)c(=O)n5C4CCC(=O)NC4=O)CC3)CC2)C1 (stereo not shown) [P-238, 3-(4-(3-(4-(3-(4-(5-Acetyl-3-(7-(difluoromethyl)-6-(1-methyl-1H-pyrazol-4-yl)-3,4-dihydroquinolin-1(2H)-yl)-4,5,6,7-tetrahydro-1H-pyrazolo[4,3-c]pyridin-1-yl)piperidin-1-yl)-3-oxopropyl)piperazin-1-yl)prop-1-yn-1-yl)-3-methyl-2-oxo-2,3-dihydro-1H-benzo[d]imidazol-1-yl)piperidine-2,6-dione] |  | 0.0811 µM | 20 to 50% |  |
| CC(=O)N1CCc2c(c(N3CCCc4cc(-c5cnn(C)c5)c(C(F)F)cc43)nn2C2CCN(C(=O)CCN3CCN(CC#Cc4ccc5c(c4)n(C)c(=O)n5C4CCC(=O)NC4=O)CC3)CC2)C1 (stereo not shown) [P-233, 3-(5-(3-(4-(3-(4-(5-Acetyl-3-(7-(difluoromethyl)-6-(1-methyl-1H-pyrazol-4-yl)-3,4-dihydroquinolin-1(2H)-yl)-4,5,6,7-tetrahydro-1H-pyrazolo[4,3-c]pyridin-1-yl)piperidin-1-yl)-3-oxopropyl)piperazin-1-yl)prop-1-yn-1-yl)-3-methyl-2-oxo-2,3-dihydro-1H-benzo[d]imidazol-1-yl)piperidine-2,6-dione] |  | 0.0182 µM | 50 to 80% |  |
| CC(=O)N1CCc2c(c(N3CCCc4cc(-c5cnn(C)c5)c(C(F)F)cc43)nn2C2CCN(CCN3CCC4(CC3)CN(c3cccc5c3C(=O)N(C3CCC(=O)NC3=O)C5=O)C4)CC2)C1 (stereo not shown) [P-245, 4-(7-(2-(4-(5-acetyl-3-(7-(difluoromethyl)-6-(1-methyl-1H-pyrazol-4-yl)-3,4-dihydroquinolin-1(2H)-yl)-4,5,6,7-tetrahydro-1H-pyrazolo[4,3-c]pyridin-1-yl)piperidin-1-yl)ethyl)-2,7-diazaspiro[3.5]nonan-2-yl)-2-(2,6-dioxopiperidin-3-yl)isoindoline-1,3-dione] |  | > 0.5 µM |  | inhibition at 0.01 µM (P300): 20 to 50% |
| CNC(=O)N1CCc2c(c(N3CCCc4cc(-c5cnn(C)c5)c(C(F)F)cc43)nn2C2CCN(C(=O)CCCCCCn3c(=O)n(C4CCC(=O)NC4=O)c4ccccc43)CC2)C1 (stereo not shown) [P-106, 3-(7-(difluoromethyl)-6-(1-methyl-1H-pyrazol-4-yl)-3,4-dihydroquinolin-1(2H)-yl)-1-(1-(7-(3-(2,6-dioxopiperidin-3-yl)-2-oxo-2,3-dihydro-1H-benzo[d]imidazol-1-yl)heptanoyl)piperidin-4-yl)-N-methyl-1,4,6,7-tetrahydro-5H-pyrazolo[4,3-c]pyridine-5-carboxamide] | 0.0242 µM |  |  | Degradation (10 nM) (P300; p300, 10 nM, Table 3): B (B: 50% ≤ Degradation < 80%) |
| CC(=O)N1CCc2c(c(N3CCCc4cc(-c5cnn(C)c5)c(C(F)F)cc43)nn2C2CCN(CCC3CCN(CCCc4cccc5c4C(=O)N(C4CCC(=O)NC4=O)C5=O)CC3)CC2)C1 (stereo not shown) [P-246, 4-(3-(4-(2-(4-(5-acetyl-3-(7-(difluoromethyl)-6-(1-methyl-1H-pyrazol-4-yl)-3,4-dihydroquinolin-1(2H)-yl)-4,5,6,7-tetrahydro-1H-pyrazolo[4,3-c]pyridin-1-yl)piperidin-1-yl)ethyl)piperidin-1-yl)propyl)-2-(2,6-dioxopiperidin-3-yl)isoindoline-1,3-dione] |  | 0.297 µM | 20 to 50% |  |
| CC(=O)N1CCc2c(c(N3CCCc4cc(-c5cnn(C)c5)c(C(F)F)cc43)nn2C2CCN(CCN3CCC(COc4cccc5c4C(=O)N(C4CCC(=O)NC4=O)C5=O)CC3)CC2)C1 (stereo not shown) [P-167, 4-((1-(2-(4-(5-acetyl-3-(7-(difluoromethyl)-6-(1-methyl-1H-pyrazol-4-yl)-3,4-dihydroquinolin-1(2H)-yl)-4,5,6,7-tetrahydro-1H-pyrazolo[4,3-c]pyridin-1-yl)piperidin-1-yl)ethyl)piperidin-4-yl)methoxy)-2-(2,6-dioxopiperidin-3-yl)isoindoline-1,3-dione] | 0.092 µM |  |  | Degradation (10 nM) (P300; p300, 10 nM, Table 3): D (D: Degradation < 20%) |
| CC(=O)N1CCc2c(c(N3CCCc4cc(-c5cnn(C)c5)c(C(F)F)cc43)nn2C2CCN(C(=O)CCCN3CCC(C#Cc4ccc5c(c4)n(C)c(=O)n5C4CCC(=O)NC4=O)CC3)CC2)C1 (stereo not shown) [P-211, 3-(5-((1-(4-(4-(5-acetyl-3-(7-(difluoromethyl)-6-(1-methyl-1H-pyrazol-4-yl)-3,4-dihydroquinolin-1(2H)-yl)-4,5,6,7-tetrahydro-1H-pyrazolo[4,3-c]pyridin-1-yl)piperidin-1-yl)-4-oxobutyl)piperidin-4-yl)ethynyl)-3-methyl-2-oxo-2,3-dihydro-1H-benzo[d]imidazol-1-yl)piperidine-2,6-dione] |  | 0.0035 µM | > 80% |  |
| CC(=O)N1CCc2c(c(N3CCCc4cc(-c5cnn(C)c5)c(C(F)F)cc43)nn2C2CCN(C(=O)CCCCCNc3ccc(C(=O)NC4CCC(=O)NC4=O)c4ncccc34)CC2)C1 (stereo not shown) [P-242, 5-((6-(4-(5-acetyl-3-(7-(difluoromethyl)-6-(1-methyl-1H-pyrazol-4-yl)-3,4-dihydroquinolin-1(2H)-yl)-4,5,6,7-tetrahydro-1H-pyrazolo[4,3-c]pyridin-1-yl)piperidin-1-yl)-6-oxohexyl)amino)-N-(2,6-dioxopiperidin-3-yl)quinoline-8-carboxamide] |  | 0.0011 µM | > 80% |  |
| CC(=O)N1CCc2c(c(N3CCCc4cc(-c5cnn(C)c5)c(C(F)F)cc43)nn2C2CCN(C(=O)CCN3CCC(C#Cc4cccc5c4n(C)c(=O)n5C4CCC(=O)NC4=O)CC3)CC2)C1 (stereo not shown) [P-231, 3-(4-((1-(3-(4-(5-acetyl-3-(7-(difluoromethyl)-6-(1-methyl-1H-pyrazol-4-yl)-3,4-dihydroquinolin-1(2H)-yl)-4,5,6,7-tetrahydro-1H-pyrazolo[4,3-c]pyridin-1-yl)piperidin-1-yl)-3-oxopropyl)piperidin-4-yl)ethynyl)-3-methyl-2-oxo-2,3-dihydro-1H-benzo[d]imidazol-1-yl)piperidine-2,6-dione] |  | 0.0013 µM | > 80% |  |
| CC(=O)N1CCc2c(c(N3CCCc4cc(-c5cnn(C)c5)c(C(F)F)cc43)nn2C2CCN(C(=O)CCCCCCCCn3c(=O)n(C4CCC(=O)NC4=O)c4ccccc43)CC2)C1 (stereo not shown) [P-163, 3-(3-(9-(4-(5-acetyl-3-(7-(difluoromethyl)-6-(1-methyl-1H-pyrazol-4-yl)-3,4-dihydroquinolin-1(2H)-yl)-4,5,6,7-tetrahydro-1H-pyrazolo[4,3-c]pyridin-1-yl)piperidin-1-yl)-9-oxononyl)-2-oxo-2,3-dihydro-1H-benzo[d]imidazol-1-yl)piperidine-2,6-dione] | 0.0009 µM |  |  | Degradation (10 nM) (P300; p300, 10 nM, Table 3): A (A: Degradation ≥ 80%) |
